These results are taken from patent EP4603088A1, “N-PALMITOYLET[…] USE IN COMBINATION WITH MELOXICAM IN THE TREATMENT OF IN[…]” (priority 2024, dated 2025).

Data set [1] concerns CFA-induced inflammatory pain. Description: CFA-induced inflammatory pain model, paw pressure test. Format: in vivo, male Sprague-Dawley rats. As to conditions: meloxicam 3 mg/kg and/or micronized PEA 10 mg/kg, single administration per os on day 7 after CFA; T0-T60; p = 0.1405 (meloxicam), p = 0.9588 (PEA), p < 0.0001 (combination). From the text:
In the in vivo experimentation, male Sprague-Dawley rats (200-250 g) (Envigo, Varese, Italy) fed "ad libitum" and housed in cages with a controlled sleep/wake cycle were used.
Before the start of the study, the animals were subjected to a 1-week acclimatization period at the Center for Laboratory Animal Sheltering (Ce.S.A.L.) of the University of Florence, following all experimental procedures and protocols compliant with the principles of care and welfare of laboratory animals approved by the Italian Ministry of Health (Italian Legislative Decree 2014/26), European directives (EU Directive 2010/63) and the ARRIVE guidelines. […]
All animals were subjected to the paw pressure test at the level of the ipsilateral paw, performed before (T0) or after 15, 30, 45 and 60 minutes after the single administration of the treatment (T15, T30, T45 and T60, respectively). In particular, the nociceptive threshold was calculated with an analgesiometer (Ugo Basile, Varese, Italy) by applying an increasing pressure at constant speed (32 g/s) by means of a non-pointed conical support on the dorsal surface of the ipsilateral paw with respect to the injection of CFA (or vehicle). […]
The AUC was analyzed by a two-way factor analysis of variance (2x2 ANOVA), after plotting the mean values, according to the procedure shown by Slinker BK. […] The values were expressed as mean ± standard error mean (SEM). […]

Data set [2] concerns LPS-induced inflammatory pain. The experiment in a line: LPS-induced inflammatory pain model, paw pressure test. The settings on record: 60 min after LPS. The data set is classed as in vivo, Male Sprague-Dawley rats. As to the method:
Male Sprague-Dawley rats were housed in groups of four, in 26x41 cm cages, at a temperature of 23±1°C, with a 12-hour circadian cycle, and water/food "ad libitum" (standard diet). LPS (10 µg in 50 µl of 0.9% NaCl, Sigma-Aldrich) was injected into the plantar surface of the hind paw of the rat following isoflurane anesthesia. Control animals were treated with vehicle alone (0.9% NaCl). Ten minutes before the LPS injection, the compounds to be tested or the vehicle alone (1% CMC) were administered orally, according to the following treatment groups (N=8 where not otherwise specified): • CTRL (healthy animals injected with 0.9% NaCl) • VEIC (animals injected with LPS and treated with vehicle, N=9) • MLX30 (animals injected with LPS and treated with meloxicam 30 mg/kg) • MLX3 (animals injected with LPS and treated with meloxicam 3 mg/kg) • PEA10 (animals injected with LPS and treated with PEA 10 mg/kg) • PEA10+MLX3 (animals injected with LPS and treated with PEA 10 mg/kg + meloxicam 3 mg/kg) • PEA5 (animals injected with LPS and treated with PEA 5 mg/kg) • PEA5 + MLX3 (animals injected with LPS and treated with PEA 5 mg/kg + meloxicam 3 mg/kg).
Inflammatory pain induced by LPS injection was measured by paw pressure test. Briefly, before and sixty min after LPS injection, increasing pressure at a constant rate (32 g/s) was applied to the ipsilateral paw of the rat using a non-sharp conical support. […] An analgesimeter (Ugo Basile, Varese) was used for this purpose. The results were expressed in terms of analgesic potency, defined as percentage inhibition (mean ± SEM) of inflammatory pain induced by LPS and calculated according to the formula: 100*(treatm-VEIC)/(CTRL-VEIC).
The results were analyzed via Generalized Linear Model (GLM) followed by post-hoc analysis based on Tukey-Kramer correction for multiple comparisons. […] In order to verify whether the effect of PEA and meloxicam was synergistic, it was analyzed whether the extent of the inhibition of inflammatory pain by LPS was greater for the association of the two substances compared to the substances used individually. […] All analyses were performed using SAS software, version 9.4 (SAS Institute, Cary, NC, USA). P value < 0.05 was considered significant.

Data set [3] deals with inflammatory pain induced by Carrageenan. Description: Carrageenan-induced inflammatory pain model, Von Frey test. Format: in vivo, male Sprague-Dawley rats. As to conditions: PEA 3 mg/kg and/or MLX 0.05 mg/kg orally 30 minutes before CAR; 3 and 5 hours after CAR injection; combination p=0.0084 and p=0.0004 vs vehicle. The procedure: All analyses were performed using SAS software, version 9.4 (SAS Institute, Cary, NC, USA). P value < 0.05 was considered significant.

The conditions of data set [4]: administered in ultra-micronized form; Nestmann Food Sci Nutr. 2016; cited from earlier work.

Several values for one entry are separate records, joined by “and”; a condition that tells them apart may be missing. Equal entries are not always repeated.

With `CCCCCCCCCCCCCCCC(=O)NCCO` [PEA, N-palmitoylethanolamide], in data set [1], the “inflammatory pain tolerance threshold (paw pressure test), effect with respect to CFA” value is “no significant effect”. The “analgesic potency, percentage inhibition of inflammatory pain induced by LPS (media)” value in data set [2] (PEA 5 mg/kg orally 10 min before LPS) is 26,46% and 26,5%; in data set [2] (PEA 10 mg/kg orally 10 min before LPS), 54,24% and 54,2%. In addition, in data set [2] (meloxicam at 3 mg/kg and 30 mg/kg, PEA at 5 mg/kg and 10 mg/kg, alone or associated with low-dose meloxicam, p<0.0001 for all comparisons), the “effect on the LPS-induced drop of the nociceptive threshold vs LPS vehicle” value is given as “significantly counteracted the pro-algic effect of LPS”. Further, the “analgesic effect vs vehicle (Von Frey test, paw retraction)” value in data set [3] was “no analgesic effect significantly different from the vehicle”. Besides, the “dose up to which free of acute and sub-chronic toxicity” value in data set [4] is at least 1000 mg/kg daily.
Regarding `Cc1cnc(NC(=O)C2=C(O)c3ccccc3S(=O)(=O)N2C)s1` [meloxicam], the “inflammatory pain tolerance threshold (paw pressure test), effect with respect to CFA” value in data set [1] is listed as “no significant effect”. Further, the “analgesic potency, percentage inhibition of inflammatory pain induced by LPS (media)” value in data set [2] (meloxicam 3 mg/kg orally 10 min before LPS, listed as MLX) is 46,12% and 46,1%; in data set [2] (meloxicam 30 mg/kg orally 10 min before LPS, listed as MLX) it was 50,49% and 50,5%.
